# Active and inactive are the calls of the source. No rule for the calls is given here.
# Tested on: CCRIS mutagenicity, Ames/micronucleus/aberration tests
# Assay: CCRIS mutagenicity studies
# [1] = Test System: AMES SALMONELLA TYPHIMURIUM, Strain/Indicator: TA98, Metabolic Activation: NONE, Method: STANDARD PLATE
# [2] = Test System: AMES SALMONELLA TYPHIMURIUM, Strain/Indicator: TA100, Metabolic Activation: NONE, Method: STANDARD PLATE
# [3] = Test System: AMES SALMONELLA TYPHIMURIUM, Strain/Indicator: TA98, Metabolic Activation: RAT, LIVER, S-9, AROCLOR 1254, Method: STANDARD PLATE
# [4] = Test System: AMES SALMONELLA TYPHIMURIUM, Strain/Indicator: TA100, Metabolic Activation: RAT, LIVER, S-9, AROCLOR 1254, Method: STANDARD PLATE
structure (smiles),measurement,setting,value
O=C(NCCCl)Sc1ncnc2nc[nH]c12,mutagenic call,"Test System: AMES SALMONELLA TYPHIMURIUM, Strain/Indicator: TA97, Metabolic Activation: NONE, Method: STANDARD PLATE",inactive; negative
same,mutagenic call,"Test System: AMES SALMONELLA TYPHIMURIUM, Strain/Indicator: TA97, Metabolic Activation: RAT, LIVER, S-9, PHENOBARBITAL AND ALPHA-NAPHTHOFLAVONE, Method: STANDARD PLATE",inactive; negative
same,mutagenic call,[1],inactive; negative
same,mutagenic call,"Test System: AMES SALMONELLA TYPHIMURIUM, Strain/Indicator: TA98, Metabolic Activation: RAT, LIVER, S-9, PHENOBARBITAL AND ALPHA-NAPHTHOFLAVONE, Method: STANDARD PLATE",inactive; negative
same,mutagenic call,[2],inactive; negative
same,mutagenic call,"Test System: AMES SALMONELLA TYPHIMURIUM, Strain/Indicator: TA100, Metabolic Activation: RAT, LIVER, S-9, PHENOBARBITAL AND ALPHA-NAPHTHOFLAVONE, Method: STANDARD PLATE",inactive; negative
same,mutagenic call,"Test System: AMES SALMONELLA TYPHIMURIUM, Strain/Indicator: TA1535, Metabolic Activation: NONE, Method: STANDARD PLATE",active; positive
same,mutagenic call,"Test System: AMES SALMONELLA TYPHIMURIUM, Strain/Indicator: TA1535, Metabolic Activation: RAT, LIVER, S-9, PHENOBARBITAL AND ALPHA-NAPHTHOFLAVONE, Method: STANDARD PLATE",active; positive
CCOCC(=O)O,mutagenic call,"Test System: AMES SALMONELLA TYPHIMURIUM, Strain/Indicator: TA97A, Metabolic Activation: NONE, Method: STANDARD PLATE",inactive; negative
same,mutagenic call,"Test System: AMES SALMONELLA TYPHIMURIUM, Strain/Indicator: TA97A, Metabolic Activation: RAT, LIVER, S-9, AROCLOR 1254, Method: STANDARD PLATE",inactive; negative
same,mutagenic call,[1],inactive; negative
same,mutagenic call,[3],inactive; negative
same,mutagenic call,[2],inactive; negative
same,mutagenic call,[4],inactive; negative
same,mutagenic call,"Test System: AMES SALMONELLA TYPHIMURIUM, Strain/Indicator: TA102, Metabolic Activation: NONE, Method: STANDARD PLATE",inactive; negative
same,mutagenic call,"Test System: AMES SALMONELLA TYPHIMURIUM, Strain/Indicator: TA102, Metabolic Activation: RAT, LIVER, S-9, AROCLOR 1254, Method: STANDARD PLATE",inactive; negative
O=C(O)c1ccccc1O,mutagenic call,"Test System: AMES SALMONELLA TYPHIMURIUM, Strain/Indicator: TA98, Metabolic Activation: GUINEA PIG, LIVER, S-9, PCB, Method: PREINCUBATION",inactive; negative
same,mutagenic call,"Test System: AMES SALMONELLA TYPHIMURIUM, Strain/Indicator: TA98, Metabolic Activation: HAMSTER, LIVER, S-9, PCB, Method: PREINCUBATION",inactive; negative
same,mutagenic call,"Test System: AMES SALMONELLA TYPHIMURIUM, Strain/Indicator: TA98, Metabolic Activation: MOUSE, LIVER, S-9, PCB, Method: PREINCUBATION",inactive; negative
same,mutagenic call,"Test System: AMES SALMONELLA TYPHIMURIUM, Strain/Indicator: TA98, Metabolic Activation: NONE, Method: PREINCUBATION",inactive; negative
same,mutagenic call,"Test System: AMES SALMONELLA TYPHIMURIUM, Strain/Indicator: TA98, Metabolic Activation: RAT LIVER S-9, PHENOBARBITAL AND BETA-NAPHTHOFLAVONE, Method: PREINCUBATION",inactive; negative
same,mutagenic call,"Test System: AMES SALMONELLA TYPHIMURIUM, Strain/Indicator: TA98, Metabolic Activation: RAT, LIVER, S-9, PCB, Method: PREINCUBATION",inactive; negative
same,mutagenic call,"Test System: AMES SALMONELLA TYPHIMURIUM, Strain/Indicator: TA100, Metabolic Activation: GUINEA PIG, LIVER, S-9, PCB, Method: PREINCUBATION",inactive; negative
same,mutagenic call,"Test System: AMES SALMONELLA TYPHIMURIUM, Strain/Indicator: TA100, Metabolic Activation: HAMSTER, LIVER, S-9, PCB, Method: PREINCUBATION",inactive; negative
same,mutagenic call,"Test System: AMES SALMONELLA TYPHIMURIUM, Strain/Indicator: TA100, Metabolic Activation: MOUSE, LIVER, S-9, PCB, Method: PREINCUBATION",inactive; negative
same,mutagenic call,"Test System: AMES SALMONELLA TYPHIMURIUM, Strain/Indicator: TA100, Metabolic Activation: NONE, Method: PREINCUBATION",inactive; negative
same,mutagenic call,"Test System: AMES SALMONELLA TYPHIMURIUM, Strain/Indicator: TA100, Metabolic Activation: RAT LIVER S-9, PHENOBARBITAL AND BETA-NAPHTHOFLAVONE, Method: PREINCUBATION",inactive; negative
same,mutagenic call,"Test System: AMES SALMONELLA TYPHIMURIUM, Strain/Indicator: TA1535, Metabolic Activation: NONE, Method: PREINCUBATION",inactive; negative
same,mutagenic call,"Test System: AMES SALMONELLA TYPHIMURIUM, Strain/Indicator: TA1535, Metabolic Activation: RAT LIVER S-9, PHENOBARBITAL AND BETA-NAPHTHOFLAVONE, Method: PREINCUBATION",inactive; negative
same,mutagenic call,"Test System: AMES SALMONELLA TYPHIMURIUM, Strain/Indicator: TA1537, Metabolic Activation: NONE, Method: PREINCUBATION",inactive; negative
same,mutagenic call,"Test System: AMES SALMONELLA TYPHIMURIUM, Strain/Indicator: TA1537, Metabolic Activation: RAT LIVER S-9, PHENOBARBITAL AND BETA-NAPHTHOFLAVONE, Method: PREINCUBATION",inactive; negative
same,mutagenic call,"Test System: E.COLI, Strain/Indicator: WP2UVRA/PKM101, Metabolic Activation: NONE, Method: PREINCUBATION",inactive; negative
same,mutagenic call,"Test System: E.COLI, Strain/Indicator: WP2UVRA/PKM101, Metabolic Activation: RAT LIVER S-9, PHENOBARBITAL AND BETA-NAPHTHOFLAVONE, Method: PREINCUBATION",inactive; negative
O=[N+]([O-])c1cnc2c(c1)nc1ccccn12,mutagenic call,[1],active; positive
same,mutagenic call,"Test System: AMES SALMONELLA TYPHIMURIUM, Strain/Indicator: TA98, Metabolic Activation: RAT, LIVER, CYTOSOL, AROCLOR 1254, Method: STANDARD PLATE",active; positive
same,mutagenic call,"Test System: AMES SALMONELLA TYPHIMURIUM, Strain/Indicator: TA98, Metabolic Activation: RAT, LIVER, MICROSOMES, AROCLOR 1254, Method: STANDARD PLATE",active; positive
same,mutagenic call,[3],active; positive
Fc1cccc2cccnc12,mutagenic call,"End Point: In vitro chromosomal aberrations, Test System: Chinese hamster lung fibroblast cells (CHL/IU), Metabolic Activation: Rat, Liver, S-9","active; positive, described as marginally clastogenic at nontoxic doses. (information de"
same,mutagenic call,"End Point: In vitro micronucleus, Test System: Chinese hamster lung fibroblast cells (CHL/IU), Metabolic Activation: Rat, Liver, S-9","inactive; negative, cytotoxic at 0.2 mg/ml. (information derived from a figure)"
same,mutagenic call,"Test System: AMES SALMONELLA TYPHIMURIUM, Strain/Indicator: TA100, Metabolic Activation: RAT LIVER S-9, PHENOBARBITAL AND 5,6-BENZOFLAVONE, Method: PREINCUBATION",active; positive
same,mutagenic call,"Test System: AMES SALMONELLA TYPHIMURIUM, Strain/Indicator: TA100, Metabolic Activation: RAT, LIVER, S-9, AROCLOR 1254, Method: PREINCUBATION",active; positive
same,mutagenic call,"Test System: AMES SALMONELLA TYPHIMURIUM, Strain/Indicator: TA100, Metabolic Activation: RAT, LIVER, S-9, PHENOBARBITAL AND 5,6-BENZOFLAVONE, Method: PREINCUBATION",active; positive
same,mutagenic call,"Test System: AMES SALMONELLA TYPHIMURIUM, Strain/Indicator: TA100, Metabolic Activation: RAT, LIVER, S-9, PHENOBARBITAL AND 5,6-NAPHTHOFLAVONE, Method: PREINCUBATION",active; positive
same,mutagenic call,"Test System: AMES SALMONELLA TYPHIMURIUM, Strain/Indicator: TA100, Metabolic Activation: S-9, Method: PREINCUBATION",active; positive
same,mutagenic call,"Test System: UDS RODENT HEPATOCYTES, Strain/Indicator: THY INCORP (NON-S-PHASE), Metabolic Activation: NONE, Method: AUTORADIOGRAPHY",active; positive
NOS(=O)(=O)O,mutagenic call,"Test System: AMES SALMONELLA TYPHIMURIUM, Strain/Indicator: G46, Metabolic Activation: RAT, LIVER, S-9, AROCLOR 1254, Method: STANDARD PLATE",active; positive
same,mutagenic call,[4],inactive; negative

# — PubChem BioAssay AID1259407 (Chemical Carcinogenesis Research Information System (CCRIS), 2018)
